Where “and” joins values, the source holds several entries; their conditions need not be identical. Identical values can stand only once.
The compounds below were run against T1, 17-beta-hydroxysteroid dehydrogenase type 3 (Homo sapiens, UniProt P37058) (assay: Inhibition Assay). Conditions: pH 7.45; 37 °C.
T1 sequence (P37058 whole entry): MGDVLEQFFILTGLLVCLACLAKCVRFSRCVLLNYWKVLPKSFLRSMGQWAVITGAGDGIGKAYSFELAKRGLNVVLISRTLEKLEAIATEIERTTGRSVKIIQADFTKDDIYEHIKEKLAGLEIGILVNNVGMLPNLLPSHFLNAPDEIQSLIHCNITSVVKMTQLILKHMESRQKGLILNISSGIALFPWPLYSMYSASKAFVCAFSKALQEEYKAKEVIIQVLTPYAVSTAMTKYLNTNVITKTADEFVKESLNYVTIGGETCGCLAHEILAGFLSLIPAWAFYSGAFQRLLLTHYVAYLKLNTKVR
Source text: Inhibition assay of human testes mcrosomal 17 beta-hydroxysteroid dehydrogenase for the reduction of androstenedione.

SMILES	IC50
O=c1c(O)c(-c2cc(O)c(O)c(O)c2)oc2cc(O)cc(O)c12	100 µM
COc1ccc(-c2coc3cc(O)cc(O)c3c2=O)cc1 [5,7-dihydroxy-3-(4-methoxyphenyl)-4H-chromen-4-one]	10.8 µM
O=c1cc(-c2ccc(O)cc2)oc2cc(O)cc(O)c12 [Naringenin, 18]	21.3 µM and 16.4 µM
C#CCC1(C(=O)OC(=C(c2ccccc2)c2ccccc2)c2ccccc2)CC(=O)NC1=O (stereo not drawn) [17Beta-HSD Inhibitor, 3]	9.15 µM
CCN(CC)CCOc1ccc(/C(=C(\Cl)c2ccccc2)c2ccccc2)cc1 [2-[4-[(Z)-2-chloranyl-1,2-diphenyl-ethenyl]phenoxy]-N,N-diethyl-ethanamine;2-oxidanylpropane-1,2,3-tricarboxylic acid]	76.2 µM
O=C1C=CC(=O)C(c2ccccc2)=C1 [2-phenylcyclohexa-2,5-diene-1,4-dione]	5.7 µM
O=c1cc(-c2ccccc2)oc2ccc(O)cc12 [6-hydroxy-2-phenyl-4H-chromen-4-one]	16.4 µM
Oc1ccc(O)c(-c2ccccc2)c1 [2-Phenylhydroquinone, 7]	14.8 µM
O=c1c(-c2ccc(O)cc2)coc2cc(O)cc(O)c12 [Prunetol]	30.3 µM
O=c1c(O)c(-c2ccc(O)c(O)c2)oc2cc(O)ccc12 [2-(3,4-dihydroxyphenyl)-3,7-dihydroxy-chromen-4-one]	32.4 µM
